ChEMBL document CHEMBL1201862, “PubChem BioAssay data set” (2004)
Calls of active or inactive are those of the source. For most assays here, no stated cut-off is given here; in the data, actives have a measured EC50 and inactives only a lower limit.

Key:
[1] = target: Cytochrome P450 2C9 (Homo sapiens, UniProt P11712)
[2] = cytotoxicity toward NIH3T3 fibroblasts, dose response, counter-screen, cell-based, ATP luminescence, mouse fibroblasts (AID 2010); format: functional;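 further: cells exposed to compound for about 90 hours before reading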
[3] = inhibitors of intracellular T. cruzi replication, confirmation, NIH3T3 host cells, beta-gal luminescence (AID 2044); format: functional, cell-based;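 further: intracellular parasites grown in NIH/3T3 mouse fibroblasts as host cells; luminescent beta-galactosidase reporter signal from transgenic T. cruzi replicating inside host cells; inhibitors lower the luminescence signal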
[4] = target: T1, Corticotropin-releasing factor receptor 2/Corticotropin-releasing factor-binding protein (Homo sapiens, UniProt P24387+Q13324); test: activators of CRF receptor 2 with binding protein – uHTS hits, confirmation (AID 602473); format: functional; settings: read-out: EC50_Mean
T1 sequence (Q13324 whole entry): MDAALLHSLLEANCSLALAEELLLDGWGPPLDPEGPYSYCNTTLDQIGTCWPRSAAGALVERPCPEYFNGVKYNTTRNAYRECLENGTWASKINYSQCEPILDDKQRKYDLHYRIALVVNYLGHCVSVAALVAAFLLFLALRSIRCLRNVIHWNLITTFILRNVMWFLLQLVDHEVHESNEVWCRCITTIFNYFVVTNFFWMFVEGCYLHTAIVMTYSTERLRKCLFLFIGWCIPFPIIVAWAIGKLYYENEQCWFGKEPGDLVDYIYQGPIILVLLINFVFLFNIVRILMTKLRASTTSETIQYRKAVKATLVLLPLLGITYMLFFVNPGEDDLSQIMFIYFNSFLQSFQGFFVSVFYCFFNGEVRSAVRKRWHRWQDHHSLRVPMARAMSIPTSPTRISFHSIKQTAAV
T1 sequence (P24387 whole entry): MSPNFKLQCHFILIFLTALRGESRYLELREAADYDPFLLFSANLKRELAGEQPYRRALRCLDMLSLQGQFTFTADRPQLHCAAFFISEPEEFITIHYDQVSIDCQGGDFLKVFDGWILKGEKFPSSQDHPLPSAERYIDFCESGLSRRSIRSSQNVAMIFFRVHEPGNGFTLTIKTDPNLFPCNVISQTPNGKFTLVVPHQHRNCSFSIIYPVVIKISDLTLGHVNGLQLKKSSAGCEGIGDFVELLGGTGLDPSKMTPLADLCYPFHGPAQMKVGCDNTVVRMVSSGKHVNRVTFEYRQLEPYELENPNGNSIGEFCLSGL

[5] = target: T1, Corticotropin-releasing factor receptor 2/Corticotropin-releasing factor-binding protein; test: Dose Response confirmation of uHTS hits for small molecule antagonists of the CRF-binding protein and CRF-R2 receptor complex.; format: functional; settings: read-out: IC50_Mean
[6] = target: Cytochrome P450 3A4 (Homo sapiens, UniProt P08684);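 further: CYP3A4 tested as one member of a cytochrome P450 panel screen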
[7] = system: Streptococcus sp. 'group A'; test: growth inhibition of control SK(-) GAS strain, dose response, counter-screen for streptokinase expression inhibitor project, luminescence, kanamycin, BacTiterGlo, confirmation (AID 1900); format: functional, organism-based
[8] = target: T2, Streptokinase A (Streptococcus pyogenes serotype M1, UniProt P10520); test: S. pyogenes streptokinase expression inhibitors, potency, dose response, plasminogen activation absorbance, OD405 (AID 1914); format: functional, Streptococcus pyogenes M1 GAS;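 further: secreted streptokinase activity via plasminogen activation per viability signal from cell pellet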
T2 sequence (P10520 whole entry): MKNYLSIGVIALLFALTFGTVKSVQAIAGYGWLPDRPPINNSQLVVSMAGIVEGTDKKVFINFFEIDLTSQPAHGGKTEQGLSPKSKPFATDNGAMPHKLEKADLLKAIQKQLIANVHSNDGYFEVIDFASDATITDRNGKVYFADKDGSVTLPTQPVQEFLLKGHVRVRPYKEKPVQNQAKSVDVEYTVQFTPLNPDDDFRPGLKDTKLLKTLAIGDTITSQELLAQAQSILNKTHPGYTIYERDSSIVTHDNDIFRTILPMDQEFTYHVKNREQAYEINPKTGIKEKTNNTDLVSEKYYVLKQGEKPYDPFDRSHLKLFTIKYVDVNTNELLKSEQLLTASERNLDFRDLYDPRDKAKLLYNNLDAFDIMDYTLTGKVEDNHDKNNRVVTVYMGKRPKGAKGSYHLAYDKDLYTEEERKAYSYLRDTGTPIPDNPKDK

[9] = system: Streptococcus; test: Group A Streptococcus viability loss, dose response, counter-screen for streptokinase expression inhibitor project, luminescence, BacTiterGlo (AID 1915); format: functional, organism-based;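 further: potency for reduction of bacterial viability or growth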

Sequence of Cytochrome P450 3A4 (P08684 whole entry): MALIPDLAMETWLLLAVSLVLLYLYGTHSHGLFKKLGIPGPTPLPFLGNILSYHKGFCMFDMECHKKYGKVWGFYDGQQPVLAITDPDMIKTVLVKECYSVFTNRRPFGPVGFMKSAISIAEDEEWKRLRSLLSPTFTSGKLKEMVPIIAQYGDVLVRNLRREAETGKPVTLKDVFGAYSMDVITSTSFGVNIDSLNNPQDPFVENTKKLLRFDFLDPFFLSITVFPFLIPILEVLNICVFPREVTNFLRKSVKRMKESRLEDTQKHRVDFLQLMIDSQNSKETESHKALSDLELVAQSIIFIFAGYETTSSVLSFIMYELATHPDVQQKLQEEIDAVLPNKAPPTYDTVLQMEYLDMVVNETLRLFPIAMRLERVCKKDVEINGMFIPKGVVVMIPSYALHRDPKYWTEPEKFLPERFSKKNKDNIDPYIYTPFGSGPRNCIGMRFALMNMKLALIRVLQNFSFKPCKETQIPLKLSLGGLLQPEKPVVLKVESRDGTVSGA
Sequence of Cytochrome P450 2C9 (P11712 whole entry): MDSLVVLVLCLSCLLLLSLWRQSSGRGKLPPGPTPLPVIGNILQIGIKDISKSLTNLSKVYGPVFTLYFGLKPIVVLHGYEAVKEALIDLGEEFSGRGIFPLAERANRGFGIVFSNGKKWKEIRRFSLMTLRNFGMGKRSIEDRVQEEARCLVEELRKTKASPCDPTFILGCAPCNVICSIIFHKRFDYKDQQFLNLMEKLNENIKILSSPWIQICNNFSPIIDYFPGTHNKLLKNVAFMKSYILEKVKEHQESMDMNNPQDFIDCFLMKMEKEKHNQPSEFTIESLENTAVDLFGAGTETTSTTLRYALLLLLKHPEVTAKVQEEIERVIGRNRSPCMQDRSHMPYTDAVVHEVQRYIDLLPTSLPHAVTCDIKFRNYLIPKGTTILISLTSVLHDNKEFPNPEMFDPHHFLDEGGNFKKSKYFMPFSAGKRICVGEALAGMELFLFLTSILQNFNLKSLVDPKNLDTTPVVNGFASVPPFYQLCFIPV

COc1cc(CN2CCN(C(=O)CC(C)C)CC2)cc(OC)c1OC
AC50 [1]: 28.2 µM (inconclusive)

Cc1c(C(=O)Nc2nc3ccccc3[nH]2)oc2ccc(Br)cc12
EC50 [2]: > 60 µM (not active) | EC50 [3]: 1.63 µM (active)

O=S(=O)(NCc1ccccc1)c1ccccc1NCCc1ccccc1
EC50 [4]: > 53 µM (inactive) | IC50 [5]: > 47.1 µM (inactive)

Cc1ccc(OCC(=O)Nc2ccc(S(=O)(=O)Nc3onc(C)c3C)cc2)cc1
AC50 [6]: 35.5 µM (inconclusive)

CN1CCN(c2nc(N3CCN(c4ccccc4)CC3)ncc2F)CC1
EC50 [2]: > 30 µM (not active) | EC50 [3]: 0.253 µM (active)

COc1ccc(NS(=O)(=O)c2cc(-c3nnnn3C)ccc2OC)cc1
AC50 [1]: 25.1 µM (inconclusive)

Cc1cc(O)ccc1N1C(=O)c2cccc3cc([N+](=O)[O-])cc(c23)C1=O
EC50 [2]: > 60 µM (not active) | EC50 [3]: 0.234 µM (active)

CC1CC1c1ccc(/C=C(\C#N)C(=O)Nc2cccc(Cl)c2Cl)o1 (stereo not given)
EC50 [4]: > 53 µM (inactive)

CN1CCN(C(CNC(=O)C(=O)Nc2ccc3c(c2)OCCO3)c2ccc(F)cc2)CC1 (stereo not given)
EC50 [2]: > 60 µM (not active) | EC50 [3]: 0.952 µM (active)

CO[C@H]1C[C@@H](O[C@@H]2[C@H](C)[C@H](O[C@@H]3O[C@@H](C)C[C@@H](N(C)C)[C@@H]3O)[C@H](C)C[C@]3(CO3)C(=O)[C@H](C)[C@H](O)[C@H](C)[C@H](C)OC(=O)[C@@H]2C)O[C@@H](C)[C@H]1O
AC50 [6]: 12.6 µM (inconclusive)

CCOC(=O)c1cnn(-c2nc(-c3ccccc3)cs2)c1C(F)(F)F
EC50 [7]: 14.6 µM (active) | EC50 [8]: 15.6 µM (active) | EC50 [9]: > 150 µM (not active)

Cc1ccc2nc(Cl)c(/C=C/C(=O)c3ccco3)cc2c1
EC50 [4]: > 53 µM (inactive) | IC50 [5]: > 47.1 µM (inactive)

Cc1[nH]c(C)c(S(=O)(=O)NCCc2ccccc2)c1C(=O)N1CCCCC1
EC50 [4]: > 53 µM (inactive) | IC50 [5]: > 47.1 µM (inactive)

NNc1nc(-c2ccccc2)c2cc(Br)ccc2n1
EC50 [7]: 10.1 µM (active) | EC50 [8]: > 150 µM (not active) | EC50 [9]: 41.8 µM (active)

CCOc1ccc(Nc2nc(N3CCCC3)nc(N3CCN(c4ccc(OC)cc4)CC3)n2)cc1
EC50 [2]: > 60 µM (not active) | EC50 [3]: 2.73 µM (active)

CC(C)(CNC(=O)c1cc(Cl)c(O)c(Cl)c1)N1CCCCC1
EC50 [4]: > 53 µM (inactive) | IC50 [5]: > 47.1 µM (inactive)

O=[N+]([O-])c1nn(-c2ccc3c(c2)OCCO3)[n+]([O-])c1NC1CCCC1
EC50 [2]: > 30 µM (not active) | EC50 [3]: 0.88 µM (active)

Cc1ccc(CN2CCN(Cc3nc4c(s3)CCCC4)CC2CCO)cc1 (stereo not given)
EC50 [2]: > 60 µM (not active) | EC50 [3]: 0.546 µM (active)

Fc1ccc(Cn2nnnc2C(c2ccc(Cl)cc2)N2CC=C(c3ccc(F)cc3)CC2)cc1 (stereo not given)
EC50 [2]: > 60 µM (not active) | EC50 [3]: 1.34 µM (active)

CCCC(=O)NC(=S)Nc1ccc(S(=O)(=O)Nc2ccc(OCC)cc2)cc1
EC50 [4]: > 53 µM (inactive)

O=C(OCCN1C(=O)c2ccccc2C1=O)c1cccc(OC(F)F)c1
EC50 [4]: > 53 µM (inactive) | IC50 [5]: > 47.1 µM (inactive)

COCCNC(=O)CN(CC1CCCO1)C(=O)CCC(=O)Nc1ccccn1 (stereo not given)
EC50 [4]: > 53 µM (inactive) | IC50 [5]: > 47.1 µM (inactive)

Cc1cccc(CN2CCN(CC(=O)O)C2=O)c1
AC50 [6]: 15.8 µM (inconclusive)

N#CCCn1c(=O)c(-c2ccccc2)nc2cnc(Oc3ccccc3)nc21
AC50 [1]: 15.8 µM (inconclusive)

CC(C)CCN=C(S)NC1CCCC1
AC50 [1]: 39.8 µM (inconclusive) | AC50 [6]: 22.4 µM (inconclusive)

O=C(CCC(=O)N1CCOc2ccc(Cl)cc21)NCc1ccccc1
EC50 [4]: > 53 µM (inactive)
